Experimental findings from US11759455B2, “Substituted 1H-imidazo[4,5-b]pyridin-2(3H)-ones and their use as GLUN2B receptor modulators” (JANSSEN PHARMACEUTICA NV, priority 2016, dated 2023) are described below.

Structures are written as SMILES. Like-named read-outs stand apart in the source and are kept apart here.

The target in the test is T1, human GluN1/GluN2B NMDA receptors (Homo sapiens, UniProt Q13224).
T1 construct: expressed in transfected cells
Put plainly: Cell-based calcium flux (FLIPR) assay on cloned human NR1/NR2B ion channels expressed in mammalian cells (standard and HTS buffer variants).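 Further: stable Tet-On inducible cell line, Ca2+ influx triggered by glutamate at about EC40 plus 10 µM glycine, fluorescent dye read-out over 5 min, normalized to control wells.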

Where [1] appears, read: standard assay buffer (0.5 mM MgCl2 dye loading; 137 mM NaCl, 4 mM KCl assay buffer), human GluN1/GluN2B cells, read-out: NR2B IC50 (μM) standard assay.
Where [2] appears, read: standard assay buffer (0.5 mM MgCl2 in dye loading buffer; 137 mM NaCl, 4 mM KCl in assay buffer), human GluN1/GluN2B, read-out: NR2B IC50 (μM) standard assay.

T1 sequence (Q13224 27-1484, other chains not shown): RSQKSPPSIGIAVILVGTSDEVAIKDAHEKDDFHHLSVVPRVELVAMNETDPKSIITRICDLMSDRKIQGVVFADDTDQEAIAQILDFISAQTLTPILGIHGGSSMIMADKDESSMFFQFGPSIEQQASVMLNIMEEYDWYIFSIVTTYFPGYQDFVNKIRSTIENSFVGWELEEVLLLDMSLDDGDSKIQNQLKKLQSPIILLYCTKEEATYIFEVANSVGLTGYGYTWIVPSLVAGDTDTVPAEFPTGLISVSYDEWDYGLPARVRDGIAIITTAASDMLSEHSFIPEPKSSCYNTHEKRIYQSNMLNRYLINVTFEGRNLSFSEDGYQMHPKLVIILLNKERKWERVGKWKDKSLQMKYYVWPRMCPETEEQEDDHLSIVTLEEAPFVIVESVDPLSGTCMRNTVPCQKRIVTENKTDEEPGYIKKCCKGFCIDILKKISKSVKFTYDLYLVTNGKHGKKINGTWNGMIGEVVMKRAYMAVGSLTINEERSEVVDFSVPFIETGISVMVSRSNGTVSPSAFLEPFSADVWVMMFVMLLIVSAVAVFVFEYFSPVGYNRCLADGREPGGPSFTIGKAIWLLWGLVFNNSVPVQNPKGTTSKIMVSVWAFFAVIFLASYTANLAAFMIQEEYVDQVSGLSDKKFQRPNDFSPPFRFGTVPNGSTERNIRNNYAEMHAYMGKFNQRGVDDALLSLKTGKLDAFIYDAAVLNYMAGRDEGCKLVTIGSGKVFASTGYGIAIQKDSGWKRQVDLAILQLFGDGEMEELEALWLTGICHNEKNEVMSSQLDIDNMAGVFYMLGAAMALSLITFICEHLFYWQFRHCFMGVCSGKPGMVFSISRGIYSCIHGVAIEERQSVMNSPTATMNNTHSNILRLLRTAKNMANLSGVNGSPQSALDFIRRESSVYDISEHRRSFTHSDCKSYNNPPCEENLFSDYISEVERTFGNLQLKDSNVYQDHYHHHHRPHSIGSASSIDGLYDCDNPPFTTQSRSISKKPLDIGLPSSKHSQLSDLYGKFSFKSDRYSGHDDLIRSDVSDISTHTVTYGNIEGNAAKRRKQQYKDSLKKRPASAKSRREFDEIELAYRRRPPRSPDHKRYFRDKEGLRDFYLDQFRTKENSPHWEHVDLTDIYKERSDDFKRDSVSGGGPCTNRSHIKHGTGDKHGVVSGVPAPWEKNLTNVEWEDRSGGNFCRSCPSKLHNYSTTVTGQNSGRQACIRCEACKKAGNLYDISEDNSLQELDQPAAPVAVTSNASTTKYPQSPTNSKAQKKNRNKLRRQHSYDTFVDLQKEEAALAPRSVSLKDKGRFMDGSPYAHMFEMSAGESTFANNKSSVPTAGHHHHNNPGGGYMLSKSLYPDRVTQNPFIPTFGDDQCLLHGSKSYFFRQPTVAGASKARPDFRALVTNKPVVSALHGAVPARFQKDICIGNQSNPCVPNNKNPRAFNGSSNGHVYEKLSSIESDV

With `Cc1cc(-c2cnc3[nH]c(=O)n(Cc4cncc(F)c4)c3c2)ccc1Cl` [Example 306, 6-(4-Chloro-3-methyl-phenyl)-1-[(5-fluoro-3-pyridyl)methyl]-3H-imidazo[4,5-b]pyridin-2-one], the IC50 under setting [1] came to 0.086 µM.
The same measure, in the same setting: with `O=c1[nH]c2ncc(-c3cccc(C(F)(F)F)c3)cc2n1Cc1ncccn1` [Example 227, 1-(Pyrimidin-2-ylmethyl)-6-[3-(trifluoromethyl)phenyl]-3H-imidazo[4,5-b]pyridin-2-one] the figure was 0.096 µM; with `Cc1cnc(Cn2c(=O)[nH]c3ncc(-c4cccc(C(F)(F)F)c4)cc32)c(F)c1` [Example 234, 1-[(3-Fluoro-5-methyl-2-pyridyl)methyl]-6-[3-(trifluoromethyl)phenyl]-3H-imidazo[4,5-b]pyridin-2-one], 1.98 µM.
The same measure, in the same setting: next, `Cn1cc(Cn2c(=O)[nH]c3ncc(-c4ccc(F)cc4)cc32)nn1` [Example 142, 6-(4-Fluorophenyl)-1-[(1-methyltriazol-4-yl)methyl]-3H-imidazo[4,5-b]pyridin-2-one]: 0.208 µM.
As for `COc1cc(F)ccc1-c1cnc2[nH]c(=O)n(CC(=O)NC3CC3)c2c1` [Example 452, N-Cyclopropyl-2-[6-(4-fluoro-2-methoxy-phenyl)-2-oxo-3H-imidazo[4,5-b]pyridin-1-yl]acetamide], the IC50 (HTS assay buffer (1.5 mM MgCl2 in dye loading buffer; 150 mM NaCl, 3 mM KCl in assay buffer), human GluN1/GluN2B, read-out: NR2B IC50 (μM) HTS assay) came to 0.071 µM.
Take `Cc1c(F)ccc(-c2cnc3[nH]c(=O)n(Cc4ccccn4)c3c2)c1F` [Example 280, 6-(2,4-Difluoro-3-methyl-phenyl)-1-(2-pyridylmethyl)-3H-imidazo[4,5-b]pyridin-2-one]: under setting [1], the IC50 stood at 0.576 µM.
On the same count and under the same terms, with `O=c1[nH]c2ncc(-c3cc(F)cc(F)c3)cc2n1CCN1CCCC1` [Example 174, 6-(3,5-Difluorophenyl)-1-(2-pyrrolidin-1-ylethyl)-3H-imidazo[4,5-b]pyridin-2-one] the figure was 1.25 µM; with `O=c1[nH]c2ncc(-c3cccc(C(F)(F)F)c3)cc2n1CCN1CC(F)C1` [Example 163, 1-[2-(3-Fluoroazetidin-1-yl)ethyl]-6-[3-(trifluoromethyl)phenyl]-3H-imidazo[4,5-b]pyridin-2-one], 0.246 µM.
With `O=C(Cn1c(=O)n(CCF)c2ncc(-c3ccc(C(F)(F)F)s3)cc21)N1CCC1` [Example 535, 1-[2-(Azetidin-1-yl)-2-oxo-ethyl]-3-(2-fluoroethyl)-6-[5-(trifluoromethyl)-2-thienyl]imidazo[4,5-b]pyridin-2-one], the IC50 under setting [2] amounted to 0.106 µM.
`Cc1c(F)ccc(-c2cnc3[nH]c(=O)n(Cc4cccnc4)c3c2)c1F` [Example 293, 6-(2,4-Difluoro-3-methyl-phenyl)-1-(3-pyridylmethyl)-3H-imidazo[4,5-b]pyridin-2-one]: the 50% inhibitory concentration (IC50) under setting [1] was found to be 0.017 µM.
Still for that read-out and setting: next, `Cn1c(=O)n(Cc2ccncc2)c2cc(-c3cccc(C(F)(F)F)c3)cnc21` [Example 250, 3-Methyl-1-(4-pyridylmethyl)-6-[3-(trifluoromethyl)phenyl]imidazo[4,5-b]pyridin-2-one]: 2 µM; `Cc1cc(F)ccc1-c1cnc2[nH]c(=O)n(CCN3CCC3)c2c1` [Example 151, 1-[2-(Azetidin-1-yl)ethyl]-6-(4-fluoro-2-methyl-phenyl)-3H-imidazo[4,5-b]pyridin-2-one]: 0.115 µM.
Still for that read-out and setting: with `O=c1[nH]c2ncc(-c3cccc(C(F)(F)F)c3)cc2n1CCN1CCC1` [Example 17, 1-[2-(Azetidin-1-yl)ethyl]-6-[3-(trifluoromethyl)phenyl]-3H-imidazo[4,5-b]pyridin-2-one] the figure was 0.146 µM.
As to `O=c1[nH]c2ncc(-c3cccc(C(F)(F)F)c3)cc2n1Cc1cccc(F)c1` [Example 222, 1-[(3-Fluorophenyl)methyl]-6-[3-(trifluoromethyl)phenyl]-3H-imidazo[4,5-b]pyridin-2-one], under setting [1], the IC50 came to 0.479 µM.
In the case of `COc1cc(F)ccc1-c1cnc2[nH]c(=O)n(Cc3cccc(F)c3)c2c1` [Example 499, 6-(4-Fluoro-2-methoxy-phenyl)-1-[(3-fluorophenyl)methyl]-3H-imidazo[4,5-b]pyridin-2-one], the IC50 under setting [2] came to 0.09 µM.
